For 11 cell lines, relative viability results are on record in the supplement of paper PMC10307832.

What all share (assay): relative viability (nuclei count vs DMSO), 5 days (fraction); higher = more cells survive
Compound in experiment [1]: O=C(O)C(Cc1ccccc1[N+](=O)[O-])=NNc1nc(-c2ccc(Cl)c(Cl)c2)cs1 (mixture of isomers) [4EGI-1] + NC(=O)Nc1cc(-c2cccc(F)c2)sc1C(=O)N[C@H]1CCCNC1 [AZD7762] (partner 0.2 µM)
The method, boiled down: (§1)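 Five library-drug doses in √10 steps were combined with a fixed anchor-drug dose, or a single drug was given alone, by pin tool to lung cancer cell lines in 1536-well plates the day after seeding. Nuclei were stained and counted after 5 days. Relative viability is the nuclei count in treated wells over that in vehicle wells, taken as the median of duplicate plates.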

Compound in experiment [2]: O=C(O)C(Cc1ccccc1[N+](=O)[O-])=NNc1nc(-c2ccc(Cl)c(Cl)c2)cs1 (mixture of isomers) [4EGI-1] + CS(=O)(=O)CCNCc1ccc(-c2ccc3ncnc(Nc4ccc(OCc5cccc(F)c5)c(Cl)c4)c3c2)o1 [Lapatinib] (partner 2 µM)
The method, boiled down:
as §1

Compound in experiment [3]: CN1CCN(CC1)C2=CC(=C(C=C2)NC3=NC=C4C(=N3)N(C5=CC=CC=C5C(=O)N4C)C)OC [XMD8-85] + COc1cccc2cc(-c3nc([C@H]4CC[C@H](C(=O)O)CC4)n4ncnc(N)c34)[nH]c12 [OSI-027] (partner 0.5 µM)
The method in brief: as §1

Compound in experiment [4]: O=C(O)C(Cc1ccccc1[N+](=O)[O-])=NNc1nc(-c2ccc(Cl)c(Cl)c2)cs1 (mixture of isomers) [4EGI-1] + CCNC(=O)c1noc(-c2cc(C(C)C)c(O)cc2O)c1-c1ccc(CN2CCOCC2)cc1 [Luminespib] (partner 0.01 µM)
The method, boiled down:
as §1

Turning to HCC-78, the relative viability in experiment [1] (first compound 0.5 µM) was determined as 0.617; in experiment [1] (first compound 5 µM), 0.651; in experiment [1] (first compound 15.81 µM), 0.451; in experiment [1] (first compound 50 µM), 0.512; in experiment [2] (first compound 0.5 µM) it was 0.842; in experiment [2] (first compound 1.581 µM), 0.551. Moreover, the relative viability came to 0.752 in experiment [2] (first compound 5 µM); 0.788 in experiment [2] (first compound 15.81 µM); 0.947 in experiment [2] (first compound 50 µM); 0.367 in experiment [3] (first compound 0.08 µM); 0.334 in experiment [3] (first compound 0.253 µM); 0.391 in experiment [3] (first compound 0.8 µM). Moreover, the relative viability is 0.35 in experiment [3] (first compound 2.53 µM) and 0.286 in experiment [3] (first compound 8 µM).
For the cell line NCI-H2023, the relative viability stood at 0.897 in experiment [4] (first compound 0.5 µM); 0.544 in experiment [4] (first compound 1.581 µM); 0.798 in experiment [4] (first compound 5 µM); 0.203 in experiment [4] (first compound 15.81 µM); 0.0714 in experiment [4] (first compound 50 µM); 1.37 in experiment [2] (first compound 0.5 µM). The relative viability is 0.964 in experiment [2] (first compound 5 µM); 0.217 in experiment [2] (first compound 15.81 µM); 0.0883 in experiment [2] (first compound 50 µM); 0.314 in experiment [3] (first compound 0.08 µM); 0.434 in experiment [3] (first compound 0.253 µM); 0.402 in experiment [3] (first compound 0.8 µM). Moreover, the relative viability in experiment [3] (first compound 2.53 µM) is 0.37; in experiment [3] (first compound 8 µM), 0.248.
As to SK-MES-1, the relative viability in experiment [4] (first compound 0.5 µM) was 0.705; in experiment [4] (first compound 1.581 µM), 0.686; in experiment [4] (first compound 5 µM) it was 0.831; in experiment [4] (first compound 15.81 µM) it was 0.669; in experiment [4] (first compound 50 µM), 0.188; in experiment [2] (first compound 0.5 µM) it was 0.51. Further, the relative viability in experiment [2] (first compound 1.581 µM) was 0.419; in experiment [2] (first compound 5 µM), 0.479; in experiment [2] (first compound 15.81 µM), 0.459; in experiment [2] (first compound 50 µM), 0.395; in experiment [3] (first compound 0.08 µM), 0.533; in experiment [3] (first compound 0.253 µM), 0.657. The results for the relative viability in experiment [3] (first compound 0.8 µM), in experiment [3] (first compound 2.53 µM) and in experiment [3] (first compound 8 µM) were 0.608, 0.525 and 0.457, respectively.
In the case of IA-LM, the relative viability worked out at 0.886 in experiment [2] (first compound 0.5 µM); 0.589 in experiment [2] (first compound 1.581 µM); 0.581 in experiment [2] (first compound 5 µM); 0.109 in experiment [2] (first compound 15.81 µM); 0.0728 in experiment [2] (first compound 50 µM).
For SK-LU-1, the relative viability amounted to 0.191 in experiment [4] (first compound 0.5 µM); 0.208 in experiment [4] (first compound 1.581 µM); 0.208 in experiment [4] (first compound 5 µM); 0.201 in experiment [4] (first compound 15.81 µM); 0.199 in experiment [4] (first compound 50 µM); 0.972 in experiment [2] (first compound 0.5 µM). Further, the relative viability in experiment [2] (first compound 1.581 µM) amounted to 1.06; in experiment [2] (first compound 5 µM) it was 0.803; in experiment [2] (first compound 15.81 µM), 0.698; in experiment [2] (first compound 50 µM), 0.487; in experiment [3] (first compound 0.08 µM) it was 0.287; in experiment [3] (first compound 0.253 µM), 0.383. For the same cell line, the relative viability in experiment [3] (first compound 2.53 µM) is 0.365; in experiment [3] (first compound 8 µM), 0.297.
As for NCI-H1563, the relative viability in experiment [4] (first compound 0.5 µM) was determined as 0.447; in experiment [4] (first compound 1.581 µM) it was 0.567; in experiment [4] (first compound 5 µM) it was 0.542; in experiment [4] (first compound 15.81 µM) it was 0.5; in experiment [4] (first compound 50 µM), 0.412; in experiment [2] (first compound 0.5 µM), 1.11. Further, the relative viability in experiment [2] (first compound 1.581 µM) is 0.809; in experiment [2] (first compound 5 µM), 0.994; in experiment [2] (first compound 15.81 µM), 0.393; in experiment [2] (first compound 50 µM), 0.536; in experiment [3] (first compound 0.08 µM) it was 0.819; in experiment [3] (first compound 0.8 µM), 0.755. Besides, the relative viability worked out at 0.715 in experiment [3] (first compound 2.53 µM) and 0.789 in experiment [3] (first compound 8 µM).
With LCLC-103H, the relative viability in experiment [4] (first compound 0.5 µM) stood at 0.984; in experiment [4] (first compound 1.581 µM), 0.898; in experiment [4] (first compound 5 µM), 0.989; in experiment [4] (first compound 15.81 µM), 0.82; in experiment [4] (first compound 50 µM), 0.618; in experiment [1] (first compound 0.5 µM), 0.868. Besides, the relative viability in experiment [1] (first compound 1.581 µM) was found to be 0.727; in experiment [1] (first compound 5 µM), 0.788; in experiment [1] (first compound 15.81 µM), 0.756; in experiment [1] (first compound 50 µM), 0.446; in experiment [3] (first compound 0.08 µM), 0.428; in experiment [3] (first compound 0.253 µM), 0.441. In addition, the relative viability in experiment [3] (first compound 0.8 µM) was determined as 0.487; in experiment [3] (first compound 8 µM) it was 0.404.
For the cell line NCI-H2009, the relative viability in experiment [4] (first compound 0.5 µM) is 1.09; in experiment [4] (first compound 1.581 µM), 1.08; in experiment [4] (first compound 5 µM) it was 1.05; in experiment [4] (first compound 15.81 µM), 0.954; in experiment [4] (first compound 50 µM) it was 0.994; in experiment [2] (first compound 0.5 µM), 1.06. For the same cell line, the relative viability in experiment [2] (first compound 1.581 µM) stood at 0.879; in experiment [2] (first compound 5 µM) it was 0.962; in experiment [2] (first compound 15.81 µM), 0.744; in experiment [2] (first compound 50 µM) it was 0.177; in experiment [3] (first compound 0.08 µM), 0.589; in experiment [3] (first compound 0.253 µM), 0.704. The relative viability in experiment [3] (first compound 0.8 µM) is 0.638; in experiment [3] (first compound 2.53 µM) it was 0.508; in experiment [3] (first compound 8 µM), 0.324.
Consider SW 900, for which the relative viability in experiment [4] (first compound 0.5 µM) came out at 0.253; in experiment [4] (first compound 5 µM), 0.177; in experiment [4] (first compound 15.81 µM), 0.156; in experiment [4] (first compound 50 µM) it was 0.191; in experiment [1] (first compound 0.5 µM), 0.833; in experiment [1] (first compound 1.581 µM) it was 0.583. Also, the relative viability in experiment [1] (first compound 5 µM) was 0.574; in experiment [1] (first compound 15.81 µM), 0.377; in experiment [1] (first compound 50 µM), 0.173; in experiment [3] (first compound 0.08 µM) it was 0.583; in experiment [3] (first compound 0.253 µM), 0.623; in experiment [3] (first compound 0.8 µM) it was 0.581. For the same cell line, the relative viability in experiment [3] (first compound 2.53 µM) was 0.553; in experiment [3] (first compound 8 µM), 0.304.
As to UMC-11, the relative viability in experiment [4] (first compound 0.5 µM) stood at 1.07; in experiment [4] (first compound 1.581 µM), 1.21; in experiment [4] (first compound 5 µM), 0.999; in experiment [4] (first compound 15.81 µM), 0.99; in experiment [4] (first compound 50 µM), 0.598; in experiment [2] (first compound 0.5 µM), 1.19. The relative viability amounted to 0.825 in experiment [2] (first compound 1.581 µM); 1.31 in experiment [2] (first compound 5 µM); 1.17 in experiment [2] (first compound 15.81 µM); 0.669 in experiment [2] (first compound 50 µM); 0.457 in experiment [3] (first compound 0.08 µM); 0.461 in experiment [3] (first compound 0.253 µM). Besides, the results for the relative viability in experiment [3] (first compound 0.8 µM), in experiment [3] (first compound 2.53 µM) and in experiment [3] (first compound 8 µM) were 0.521, 0.436 and 0.371, respectively.
As to NCI-H522, the relative viability in experiment [4] (first compound 0.5 µM) stood at 1.18; in experiment [4] (first compound 1.581 µM) it was 0.612; in experiment [4] (first compound 5 µM) it was 1.13; in experiment [4] (first compound 15.81 µM), 1.33; in experiment [4] (first compound 50 µM), 0.711; in experiment [1] (first compound 0.5 µM), 0.947. Moreover, the relative viability in experiment [1] (first compound 1.581 µM) is 0.71; in experiment [1] (first compound 5 µM), 0.985; in experiment [1] (first compound 15.81 µM), 0.874; in experiment [1] (first compound 50 µM) it was 0.783; in experiment [3] (first compound 0.08 µM) it was 0.659; in experiment [3] (first compound 0.253 µM) it was 0.747. In addition, the relative viability came out at 0.66 in experiment [3] (first compound 0.8 µM), 0.828 in experiment [3] (first compound 2.53 µM) and 0.596 in experiment [3] (first compound 8 µM).
